Key:
[1] = Cytotoxicity assay (MTT), mean over three normal oral cells; assay type: cell-based; settings: human; mean of HGF, HPLF, HPC; read-out: (D) Mean CC50, human normal oral cells
Method: (§1) The cytotoxicity of the compounds were assayed toward human oral squamous cell carcinoma cell lines derived from gingiva tissue (CA9–22) and tongue (HSC-2, HSC-3, HSC-4), and human normal oral cells (gingival fibroblasts, HGF; periodontal ligament fibroblasts, HPLF; pulp cells, HPC) with some minor modifications[16]^,[17]^,[26]^,[30–33]. In brief, cells were cultured in DMEM supplemented with 10% fetal bovine serum (FBS). Cells (2.5 × 10^3 cells/well) were inoculated and incubated for 48 h to achieve complete adherence. Near confluent cells were incubated for a further 48 h in the fresh culture medium containing each test compound (3.12, 6.25, 12.5, 25, 50, 100, 200, 400 μM) or 5-FU (positive control) (7.8, 15.6, 31.2, 62.5, 125, 250, 500, 1000 μM). The viable cell numbers were determined by the MTT method. Cytotoxicity induced by DMSO (0.0078, 0.0156, 0.03125, 0.0625, 0.125, 0.25, 0.5 or 1%) was subtracted from each well. The CC50 values were determined from the dose-response curves. The tumor selectivity (TS) was calculated by the following equation: TS = mean CC50 against normal cells/mean CC50 against cancer cells [shown as (D/B) or (C/A) in Table 1]. A potency selectivity expression (PSE) was calculated by multiplying the reciprocal of average CC50 values toward cancer cell lines and the average SI values toward these cell lines and expressed as a percentage [PSE = (D/B^2) × 100].

[2] = tested on: HSC-4 (human oral squamous cell carcinoma, tongue); assay: Cytotoxicity assay (MTT), HSC-4 cells; assay type: cell-based; settings: for CC50: Homo sapiens, HSC-4, 48 h, MTT; for SI HSC-4: average CC50 of nonmalignant cells / CC50 toward HSC-4
Method: as §1

[3] = tested on: HSC-2 (human oral squamous cell carcinoma, tongue); assay: Cytotoxicity assay (MTT), HSC-2 cells; assay type: cell-based; settings: for CC50: Homo sapiens, HSC-2, 48 h, MTT; for SI HSC-2: average CC50 of nonmalignant cells / CC50 toward HSC-2; for times of potency versus 5-FU toward HSC-2: CC50 ratio to reference 5-FU
Method: as §1

[4] = tested on: Human oral squamous cell carcinoma cells; assay: Cytotoxicity assay (MTT), mean over four OSCC cell lines; assay type: cell-based; settings: for CC50: Homo sapiens, mean of Ca9-22, HSC-2, HSC-3, HSC-4, read-out: (B) Mean CC50, human oral squamous cell carcinoma cells; for TS (D/B): mean CC50 normal cells / mean CC50 OSCC cells; for PSE (D/B^2) × 100: potency selectivity expression, expressed as a percentage
Method: as §1

[5] = Cytotoxicity assay (MTT), HPLF cells; assay type: cell-based; settings: human, periodontal ligament fibroblasts (HPLF), normal oral cells
Method: as §1

[6] = Cytotoxicity assay (MTT), HGF cells; assay type: cell-based; settings: human, gingival fibroblasts (HGF), normal oral cells
Method: as §1

[7] = Cytotoxicity assay (MTT), HPC cells; assay type: cell-based; settings: human, pulp cells (HPC), normal oral cells
Method: as §1

[8] = tested on: HSC-3 (human oral squamous cell carcinoma, tongue); assay: Cytotoxicity assay (MTT), HSC-3 cells; assay type: cell-based; settings: for CC50: Homo sapiens, HSC-3, 48 h, MTT; for SI HSC-3: average CC50 of nonmalignant cells / CC50 toward HSC-3
Method: as §1

[9] = tested on: Ca9-22 (human oral squamous cell carcinoma, gingiva); assay: Cytotoxicity assay (MTT), Ca9-22 cells; assay type: cell-based; settings: for TS (C/A): CC50 HGF / CC50 Ca9-22; for CC50: Homo sapiens, Ca9-22, 48 h, MTT, triplicate wells; for SI Ca9-22: average CC50 of nonmalignant cells / CC50 toward Ca9-22; for times of potency versus 5-FU toward Ca9-22: CC50 ratio to reference 5-FU
Method: as §1

hCA II = hCA II (Homo sapiens, UniProt P00918); assay: Carbonic anhydrase inhibition assay (esterase activity, 348 nm), hCA II; assay type: biochemical; settings: for Ki: Lineweaver-Burk, three concentrations; for IC50: from activity (%) versus compound plots; for times more potent than AZA toward hCA II: in terms of IC50 values
hCA I = hCA I (Homo sapiens, UniProt P00915); assay: Carbonic anhydrase inhibition assay (esterase activity, 348 nm), hCA I; assay type: biochemical; settings: for Ki: Lineweaver-Burk, three concentrations; for IC50: from activity (%) versus compound plots; for times more potent than AZA toward hCA I: in terms of IC50 values
Sequence of hCA I (P00915 whole entry): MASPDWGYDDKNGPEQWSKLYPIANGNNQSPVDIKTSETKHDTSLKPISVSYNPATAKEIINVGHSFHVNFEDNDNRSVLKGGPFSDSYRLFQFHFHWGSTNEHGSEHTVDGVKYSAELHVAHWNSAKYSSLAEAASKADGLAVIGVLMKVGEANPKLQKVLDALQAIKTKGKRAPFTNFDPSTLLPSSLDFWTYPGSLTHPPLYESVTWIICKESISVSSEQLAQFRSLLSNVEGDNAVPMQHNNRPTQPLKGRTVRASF

Compound | Ki (hCA II) [µM] | IC50 (hCA II) [µM] | times more potent than AZA toward hCA II (hCA II) | Ki (hCA I) [µM] | CC50 at 48 h [1] [µM] | CC50 [2] [µM] | CC50 [3] [µM] | SI HSC-2 [3] | CC50 [4] [µM] | TS (D/B) [4] | PSE (D/B^2) × 100 [4] | CC50 at 48 h [5] [µM] | CC50 at 48 h [6] [µM] | CC50 at 48 h [7] [µM] | CC50 [8] [µM] | SI HSC-3 [8] | TS (C/A) [9] | CC50 [9] [µM] | SI Ca9-22 [9] | SI HSC-4 [2] | other results
O=c1[nH]cc(F)c(=O)[nH]1 [Compound 5-FU, 5-Fluorouracil, reference compound] | – | – | – | – | > 736 | 17.3 | 45.7 | >16.1 | 47.6 | >15.5 | >32.6 | 208 | > 1000 | > 1000 | 27.3 | >71.5 | >10.0 | 100 | >167.3 | – | –
NS(=O)(=O)c1ccc(N2N=C(c3ccccc3)CC2c2ccc(O)cc2)cc1 (stereo not drawn) [Compound 8, 4-[5-(4-Hydroxyphenyl)-3-phenyl-4,5-dihydro-1H-pyrazol-1-yl]benzenesulfonamide] | 0.00459 ± 0.00083 | 0.00495 | 40.3 | 0.00484 ± 0.00078 | 75.9 | 50.3 | 67 | 1.1 | 56.4 | 1.3 | 2.3 | 54.3 | 85 | 88.3 | 66.3 | 1.1 | 2.0 | 42 | 1.8 | 1.5 | IC50 (hCA I): 0.00481 µM; times more potent than AZA toward hCA I (hCA I): 39.5; times of potency versus 5-FU toward Ca9-22 [9]: 2.4
Cc1ccc(C2=NN(c3ccc(S(N)(=O)=O)cc3)C(c3ccc(O)cc3)C2)cc1 (stereo not drawn) [Compound 9, 4-[5-(4-Hydroxyphenyl)-3-(4-methylphenyl)-4,5-dihydro-1H-pyrazol-1-yl]benzene sulfonamide] | 0.00748 ± 0.00252 | 0.00563 | 35.5 | 0.00459 ± 0.00125 | 44.2 | 31.7 | 33.3 | 1.3 | 32.6 | 1.4 | 4.2 | 39.3 | 43.7 | 49.7 | 39.7 | 1.1 | 1.7 | 25.7 | 1.7 | 1.4 | times of potency versus 5-FU toward HSC-2 [3]: 1.4; IC50 (hCA I): 0.00529 µM; times more potent than AZA toward hCA I (hCA I): 35.9; times of potency versus 5-FU toward Ca9-22 [9]: 3.9
COc1ccc(C2=NN(c3ccc(S(N)(=O)=O)cc3)C(c3ccc(O)cc3)C2)cc1 (stereo not drawn) [Compound 10, 4-[5-(4-Hydroxyphenyl)-3-(4-methoxyphenyl)-4,5-dihydro-1H-pyrazol-1-yl] benzenesulfonamide] | 0.00507 ± 0.00169 | 0.00537 | 37.1 | 0.00399 ± 0.0009 | 50.8 | 40.7 | 65.3 | 0.8 | 47.7 | 1.1 | 2.2 | 44 | 47.3 | 61 | 47 | 1.1 | 1.3 | 37.7 | 1.3 | 1.2 | IC50 (hCA I): 0.00484 µM; times more potent than AZA toward hCA I (hCA I): 39.3; times of potency versus 5-FU toward Ca9-22 [9]: 2.7
NS(=O)(=O)c1ccc(N2N=C(c3ccc(F)cc3)CC2c2ccc(O)cc2)cc1 (stereo not drawn) [Compound 11, 4-[5-(4-Hydroxyphenyl)-3-(4-fluorophenyl)-4,5-dihydro-1H-pyrazol-1-yl] benzenesulfonamide] | 0.00453 ± 0.00075 | 0.00572 | 34.9 | 0.0051 ± 0.00117 | 59.1 | 39.3 | 46.3 | 1.3 | 41.3 | 1.4 | 3.5 | 43 | 66.7 | 67.7 | 43.3 | 1.4 | 1.8 | 36.3 | 1.6 | 1.5 | times of potency versus 5-FU toward HSC-2 [3]: 1.0; IC50 (hCA I): 0.00568 µM; times more potent than AZA toward hCA I (hCA I): 33.5; times of potency versus 5-FU toward Ca9-22 [9]: 2.8

Further compounds by falling Ki (hCA II), results first:

Ki (hCA II) [µM] | IC50 (hCA II) [µM] | times more potent than AZA toward hCA II (hCA II) | Ki (hCA I) [µM] | Compound | CC50 at 48 h [1] [µM] | CC50 [2] [µM] | CC50 [3] [µM] | SI HSC-2 [3] | CC50 [4] [µM] | TS (D/B) [4] | PSE (D/B^2) × 100 [4] | CC50 at 48 h [5] [µM] | CC50 at 48 h [6] [µM] | CC50 at 48 h [7] [µM] | CC50 [8] [µM] | SI HSC-3 [8] | TS (C/A) [9] | CC50 [9] [µM] | SI Ca9-22 [9] | SI HSC-4 [2] | other results
0.00456 ± 0.00108 | 0.00465 | 42.9 | 0.00373 ± 0.00091 | NS(=O)(=O)c1ccc(N2N=C(c3ccc(Br)cc3)CC2c2ccc(O)cc2)cc1 (stereo not drawn) [Compound 13, 4-[5-(4-Hydroxyphenyl)-3-(4-bromophenyl)-4,5-dihydro-1H-pyrazol-1-yl] benzenesulfonamide] | 34.7 | 25.7 | 37.7 | 0.9 | 29.7 | 1.2 | 3.9 | 29.7 | 34.7 | 39.7 | 34.7 | 1.0 | 1.7 | 20.7 | 1.7 | 1.4 | times of potency versus 5-FU toward HSC-2 [3]: 1.2; IC50 (hCA I): 0.00422 µM; times more potent than AZA toward hCA I (hCA I): 45.1; times of potency versus 5-FU toward Ca9-22 [9]: 4.8
0.00406 ± 0.0006 | 0.00425 | 46.9 | 0.00449 ± 0.00067 | NS(=O)(=O)c1ccc(N2N=C(c3ccc(Cl)cc3)CC2c2ccc(O)cc2)cc1 (stereo not drawn) [Compound 12, 4-[5-(4-Hydroxyphenyl)-3-(4-chlorophenyl)-4,5-dihydro-1H-pyrazol-1-yl] benzenesulfonamide] | 44.3 | 31.3 | 39 | 1.1 | 32.8 | 1.4 | 4.1 | 38.3 | 44 | 50.7 | 38.3 | 1.2 | 2.0 | 22.3 | 2.0 | 1.4 | times of potency versus 5-FU toward HSC-2 [3]: 1.2; IC50 (hCA I): 0.00491 µM; times more potent than AZA toward hCA I (hCA I): 38.7; times of potency versus 5-FU toward Ca9-22 [9]: 4.5
0.00385 ± 0.00057 | 0.00545 | 36.6 | 0.00417 ± 0.00093 | NS(=O)(=O)c1ccc(N2N=C(c3cccs3)CC2c2ccc(O)cc2)cc1 (stereo not drawn) [Compound 14, 4-[5–(4-Hydroxyphenyl)-3-(thiophen-2-yl)-4,5-dihydro-1H-pyrazol-1-yl] benzenesulfonamide] | 82.9 | 55.3 | 55 | 1.5 | 54.3 | 1.5 | 2.8 | 73 | 88.3 | 87.3 | 61.3 | 1.4 | 1.9 | 45.7 | 1.8 | 1.5 | IC50 (hCA I): 0.00513 µM; times more potent than AZA toward hCA I (hCA I): 37.1; times of potency versus 5-FU toward Ca9-22 [9]: 2.2
